The values that follow are results of earlier work, collected in patent US20250099481A1, “BCL-2 INHIBITORS” (Newave Pharmaceutical Inc., priority 2022, published 2025).

For data set [1] the following is noted: in vivo.
For data set [2], the system named is xenograft models of small-cell lung cancer and acute lymphoblastic leukemia. The conditions noted are these: oral administration alone.
For the next data set, the system named is H345 xenograft. The following applies: 100 mg/kg/day, H345 xenograft model.
The next data set has as its target T1, Bcl-w (Homo sapiens, UniProt Q92843).
T1 sequence (Q92843 1-193): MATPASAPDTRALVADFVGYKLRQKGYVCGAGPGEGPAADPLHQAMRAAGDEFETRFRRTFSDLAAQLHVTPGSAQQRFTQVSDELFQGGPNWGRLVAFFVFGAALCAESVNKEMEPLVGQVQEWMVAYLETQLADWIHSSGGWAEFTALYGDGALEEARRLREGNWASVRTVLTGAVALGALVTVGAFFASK

Data set [3] has as its system DoHH2, Granta-519 xenografts. The following applies: single agent or in combination with Bendamustine and other agents.
For the next data set, the system named is RS4;11 xenografts. The following applies: single dose of 100 mg/kg.
The subject of another data set is CLL. The conditions noted are these: read-out: average EC50, apoptosis.
In data set [4] the test system is CLL who have 17p deletion. The following applies: Human Phase I and II data, CLL with 17p deletion.

Turning to `CN(C)CC[C@H](CSc1ccccc1)Nc1ccc(S(=O)(=O)NC(=O)c2ccc(N3CCN(Cc4ccccc4-c4ccc(Cl)cc4)CC3)cc2)cc1[N+](=O)[O-]` [ABT-737], the aqueous solubility entry is “low aqueous solubility”. Further, the “efficacy in animal models” value with established tumors is “improves survival, causes regression of established tumors, and produces cures in a high percentage of the mice”. Moreover, the oral bioavailability result in data set [1] is “not orally bioavailable”.
Regarding `CC1(C)CCC(c2ccc(Cl)cc2)=C(CN2CCN(c3ccc(C(=O)NS(=O)(=O)c4ccc(N[C@H](CCN5CCOCC5)CSc5ccccc5)c(S(=O)(=O)C(F)(F)F)c4)cc3)CC2)C1` [ABT-263], the IC50 (usually the concentration at which inhibition is half-maximal) in the data set with SCLC H146 cell line is 110 nM. For the same compound, in data set [2], the tumor response entry is reported as “complete tumor regressions”. Also, in the data set with circulating platelets (clinical trial, inhibition of BCL-XL), the “number of circulating platelets” value was “rapid, concentration-dependent decrease in the number of circulating platelets”. The dose-limiting toxicity result with circulating platelets (single-agent treatment in patients) was “thrombocytopenia is the dose-limiting toxicity”. Also, in the data set with H345 xenograft, the inhibition of tumour growth (TGI) (in general, how far tumour growth fell short of that in controls) is reported as 80% and the “treated tumors indicating at least a 50% reduction in tumor volume” value is given as 20%. The Ki (commonly the equilibrium dissociation constant of an inhibitor or competing ligand from its target) on Bcl-w is 1 nM.
In the case of ABT-199, the xenograft growth result in [3] was “inhibits xenograft growth”. Also, in the data set on RS4;11 xenografts, the “maximal tumor growth inhibition” value was 95% and the tumor growth delay is given as 152%. Besides, in the data set with RS4;11 cells, the EC50 (in general, the concentration at which the effect is half-maximal) is 8 nM. In the data set on RS4;11 cells (cytochrome c release, caspase activation, accumulation of sub-G0/G1 DNA), the apoptosis induction entry is on record as “induces a rapid apoptosis”. Also, the EC50 with CLL was 3 nM. Besides, in [4], the clinical efficacy result was “highly efficacious”.
